In ChEMBL document CHEMBL1250421, “Synthesis of 5-deoxy-beta-D-galactofuranosides as tools for the characterization of beta-D-galactofuranosidases” (Bioorg Med Chem, 2010):

Target: not listed separately
Test: Inhibition of Penicillium fellutanum exo-beta-D-galactofuranosidase by spectrophotometry

Row | Structure (SMILES) | IC50 [µM]
1 | O=[N+]([O-])c1ccc(S[C@@H]2O[C@@H]([C@H](O)CO)[C@H](O)[C@H]2O)cc1 | 600
2 | O=C1O[C@@H]([C@H](O)CO)[C@H](O)[C@H]1O | 20
3 | OC[C@@H](O)[C@@H]1O[C@@H](n2cc[nH]c2=S)[C@H](O)[C@H]1O | 1050
4 | Nc1ccc(S[C@@H]2O[C@@H]([C@H](O)CO)[C@H](O)[C@H]2O)cc1 | 80
5 | CO[C@H]1CNC(=S)N1[C@@H]1O[C@@H]([C@H](O)CO)[C@H](O)[C@H]1O | 100

Test system: Penicillium fellutanum
Test: Activity of Penicillium fellutanum exo-beta-D-galactofuranosidase by spectrophotometry

Row | Structure (SMILES) | Km [µM]
6 | CO[C@@H]1O[C@@H]([C@H](O)CO)[C@H](O)[C@H]1O | 2600
7 | O=[N+]([O-])c1ccc(O[C@@H]2O[C@@H]([C@H](O)CO)[C@H](O)[C@H]2O)cc1 | 310
8 | OC[C@@H](O)[C@@H]1O[C@@H](OCc2ccccc2)[C@H](O)[C@H]1O | 3700
